For orientation: IC50 means the concentration that inhibits the measured activity by half. A low value points to greater potency.

This passage reports IC50 results from US9896445B2, “Heterocyclic inhibitors of ERK1 and ERK2 and their use in the treatment of cancer” (Asana Biosciences, LLC, priority 2015, dated 2018).

A value given as a limit tells only on which side of the number the result lay.

Test [1] addresses T1, ERK1 (Homo sapiens, UniProt P27361).
T1 construct: purchased Jubilant Biosys
Nature of the test: ERK1 HTRF (biochemical) assay. To be noted: HTRF. On the procedure: (§1) ERK1 and ERK2 HTRF (Biochemical) Assays
These assays employed a homogeneous time resolved fluorescence (HTRF) technique. […] The plate was incubated at room temperature for 60 min with shaking. […] The IC50 values (half maximal inhibitory concentration values) were subsequently determined using a sigmoidal dose-response curve (variable slope) in GraphPad Prism® 5 software.
For orientation: Time-resolved FRET reads energy transfer from a long-lived donor to a nearby acceptor.

Test [2] deals with T2, ERK2 (Homo sapiens, UniProt P28482).
T2 construct: purchased Jubilant Biosys
Nature of the test: ERK2 HTRF (biochemical) assay. To be noted: HTRF. As to the method: as §1
These assays employed a homogeneous time resolved fluorescence (HTRF) technique. The compounds were serially diluted by half-log with concentrations ranging from 0.0005 to 10 uM in the assay buffer (50 mM Tris pH=7.5, 1 mM EGTA, 2 mM DTT, 10 mM MgCl2, 0.1% Tween-20) and 20 uL of substrate-ATP mix [1 uM Biotin-LC-Myelin Basic Protein (MBP) derivatized Peptide (Anaspec)-24 uM ATP (Sigma)] was added to each well of the assay plate. Then 10 uL of enzyme mix [25 nM ERK1 or ERK2 (Jubilant Biosys) in assay buffer] was added to each well. The plate was incubated at room temperature for 60 min with shaking. The HTRF mix [625 nM LANCE® Ultra Europium-anti-phospho-MBP (Perkin Elmer) and 2 nM Phycolink® Streptavidin-Allophycocyanin (SA-APC) (Prozyme) in HTRF buffer (50 mM Tris-HCl pH=7.5, 100 mM NaCl, 0.1% BSA, 0.05% Tween20, 0.5 mM EDTA)] was prepared and 75 uL of this mix was added to the HTRF plate. After incubation for 60 min at room temperature, 10 uL of the reaction mixture was transferred to the HTRF assay plate and incubated for 45 min at room temperature with shaking. Plate was read using Pherastar in HTRF mode (excitation 337 nm, emission 665 & 620 nm). The IC50 values (half maximal inhibitory concentration values) were subsequently determined using a sigmoidal dose-response curve (variable slope) in GraphPad Prism® 5 software.

T1 sequence (P27361 whole entry): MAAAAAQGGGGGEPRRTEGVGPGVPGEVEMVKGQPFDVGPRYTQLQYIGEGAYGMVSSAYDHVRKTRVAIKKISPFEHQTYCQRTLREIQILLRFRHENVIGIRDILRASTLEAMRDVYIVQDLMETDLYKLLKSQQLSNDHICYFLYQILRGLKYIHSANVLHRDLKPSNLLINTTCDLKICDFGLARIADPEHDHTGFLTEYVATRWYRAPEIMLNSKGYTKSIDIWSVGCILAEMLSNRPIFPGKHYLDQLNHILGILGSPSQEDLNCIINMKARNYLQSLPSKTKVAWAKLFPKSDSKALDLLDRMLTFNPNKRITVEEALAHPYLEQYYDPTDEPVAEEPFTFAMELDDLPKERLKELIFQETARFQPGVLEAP
T2 sequence (P28482 whole entry): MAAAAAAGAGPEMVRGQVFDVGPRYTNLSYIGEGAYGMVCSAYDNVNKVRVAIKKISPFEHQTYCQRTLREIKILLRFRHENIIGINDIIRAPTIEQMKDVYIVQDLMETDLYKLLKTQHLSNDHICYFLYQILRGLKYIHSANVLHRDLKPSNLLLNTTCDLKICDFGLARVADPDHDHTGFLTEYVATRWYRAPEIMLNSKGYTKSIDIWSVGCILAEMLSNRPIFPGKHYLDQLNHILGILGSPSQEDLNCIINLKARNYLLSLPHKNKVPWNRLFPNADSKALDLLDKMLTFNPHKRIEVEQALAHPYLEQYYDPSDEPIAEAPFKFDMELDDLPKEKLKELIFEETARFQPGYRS

Take `Cc1cnc(Nc2ccccc2Cl)nc1-n1cc(NC(=O)NC(CO)c2cccc(Cl)c2)cn1` (stereo not drawn) [Compound 43, 1-(1-(3-chlorophenyl)-2-hydroxyethyl)-3-(1-(2-((2-chloro-phenyl)amino)-5-methylpyrimidin-4-yl)-1H-pyrazol-4-yl)urea]: the IC50 in test [1] and in test [2] was > 2500 nM each time.

As to `Cc1cnc(Nc2ccc3c(c2)OCO3)nc1-n1cc(NC(=O)N[C@H](CO)c2cccc(Cl)c2)cn1` [Compound 44, (S)-1-(1-(2-(benzo[d][1,3]dioxol-5-ylamino)-5-methylpyrimidin-4-yl)-1H-pyrazol-4-yl)-3-(1-(3-chloro-phenyl)-2-hydroxy-ethyl)urea], the IC50 in test [1] was 50 to 100 nM; in test [2], ≤ 50 nM.

`Cc1cnc(Nc2ccc(F)cc2Cl)nc1-n1cc(C(=O)NC(CO)c2cccc(Cl)c2)cn1` (stereo not drawn) [Compound 45, 1-(2-((2-chloro-4-fluorophenyl)amino)-5-methyl-pyrimidin-4-yl)-N-(1-(3-chlorophenyl)-2-hydroxyethyl)-1H-pyrazole-4-carboxamide]: the IC50 was < 50 nM in test [1] and ≤ 50 nM in test [2].

As for `O=C(NC(CO)c1cccc(Cl)c1)c1ccn(-c2ccnc(Nc3ccccc3)c2)c1` (stereo not drawn) [Compound 46, N-(1-(3-chloro-phenyl)-2-hydroxy-ethyl)-1-(2-(phenyl-amino)pyridin-4-yl)-1H-pyrrole-3-carboxamide], the IC50 in test [1] is < 50 nM; in test [2], ≤ 50 nM.

In the case of `Cc1cnc(Nc2ccc3c(c2)OCO3)nc1-n1ccc(C(=O)NC(CO)c2ccccc2)c1` (stereo not drawn) [Compound 47, 1-(2-(benzo[d][1,3]dioxol-5-ylamino)-5-methylpyrimidin-4-yl)-N-(2-hydroxy-1-phenylethyl)-1H-pyrrole-3-carboxamide], the figures for the IC50 in test [1] and in test [2] were < 50 nM and ≤ 50 nM, respectively.

For `Cc1cnc(Nc2ccc3c(c2)OCO3)nc1-n1cnc(C(=O)N[C@H](CO)c2cccc(Cl)c2)c1` [Compound 48, (S)-1-(2-(benzo[d][1,3]dioxol-5-ylamino)-5-methylpyrimidin-4-yl)-N-(1-(3-chloro-phenyl)-2-hydroxy-ethyl)-1H-imidazole-4-carboxamide], the IC50 in test [1] was < 50 nM; in test [2], ≤ 50 nM.

Turning to `Cc1cnc(Nc2ccc3c(c2)OCO3)nc1-n1cc(NC(=O)N[C@@H](CO)c2cccc(Cl)c2)cn1` [Compound 51, (R)-1-(1-(2-(benzo[d][1,3]dioxol-5-ylamino)-5-methylpyrimidin-4-yl)-1H-pyrazol-4-yl)-3-(1-(3-chloro-phenyl)-2-hydroxy-ethyl)urea], the IC50 in test [1] lay within 100 to 500 nM; in test [2], 50 to 100 nM.

Regarding `O=C(N[C@H](CO)c1cccc(Cl)c1)c1cnn(-c2ccnc(Nc3ccccc3)n2)c1` [Compound 53, (S)-N-(1-(3-chlorophenyl)-2-hydroxyethyl)-1-(2-(phenylamino)pyrimidin-4-yl)-1H-pyrazole-4-carboxamide], the half-inhibitory concentration (IC50) in test [1] and in test [2] was 100 to 500 nM each time.

For `Cc1cnc(Nc2ccc(F)cc2Cl)nc1-n1cc(C(=O)NC(CN)c2ccccc2)cn1` (stereo not drawn) [Compound 54, N-(2-amino-1-phenylethyl)-1-(2-((2-chloro-4-fluoro-phenyl)amino)-5-methylpyrimidin-4-yl)-1H-pyrazole-4-carboxamide], the half-inhibitory concentration (IC50) in test [1] was 50 to 100 nM; in test [2], ≤ 50 nM.

Consider `Cc1cnc(Nc2ccc(F)cc2Cl)nc1-n1ccc(C(=O)N[C@H](CO)c2cccc(Cl)c2)c1` [Compound 57, (S)-1-(2-((2-chloro-4-fluorophenyl)-amino)-5-methyl-pyrimidin-4-yl)-N-(1-(3-chlorophenyl)-2-hydroxyethyl)-1H-pyrrole-3-carboxamide], for which the values for the concentration for half-maximal inhibition (IC50) in test [1] and in test [2] were < 50 nM and ≤ 50 nM, respectively.

Take `Cc1cnc(Nc2ccc3c(c2)OCO3)nc1-n1ccc(C(=O)NC(CO)c2cc(Cl)cc(Cl)c2)c1` (stereo not drawn) [Compound 58, 1-(2-(benzo[d][1,3]dioxol-5-ylamino)-5-methylpyrimidin-4-yl)-N-(1-(3,5-dichlorophenyl)-2-hydroxyethyl)-1H-pyrrole-3-carboxamide]: the IC50 was < 50 nM in test [1] and ≤ 50 nM in test [2].

For `Cc1cnc(Nc2ccc3c(c2)OCO3)nc1-n1ccc(C(=O)N[C@H](CO)Cc2ccccc2)c1` [Compound 59, (S)-1-(2-(benzo[d][1,3]dioxol-5-ylamino)-5-methylpyrimidin-4-yl)-N-(1-hydroxy-3-phenylpropan-2-yl)-1H-pyrrole-3-carboxamide], the figures for the IC50 in test [1] and in test [2] were 50 to 100 nM and ≤ 50 nM, respectively.

For the molecule `Cc1cnc(Nc2ccc3c(c2)OCO3)nc1-n1ccc(C(=O)N[C@H](CO)c2ccccc2)c1` [Compound 60, (S)-1-(2-(benzo[d][1,3]dioxol-5-ylamino)-5-methylpyrimidin-4-yl)-N-(2-hydroxy-1-phenylethyl)-1H-pyrrole-3-carboxamide], the IC50 is < 50 nM in test [1] and ≤ 50 nM in test [2].

Turning to `Cc1cnc(Nc2ccc3c(c2)OC(F)(F)O3)nc1-n1ccc(C(=O)NC(CO)c2cccc(Cl)c2)c1` (stereo not drawn) [Compound 62, N-(1-(3-chloro-phenyl)-2-hydroxyethyl)-1-(2-((2,2-difluoro-benzo[d][1,3]dioxol-5-yl)amino)-5-methylpyrimidin-4-yl)-1H-pyrrole-3-carboxamide], the IC50 in test [1] is < 50 nM; in test [2] it was ≤ 50 nM.

With `Cc1cnc(Nc2ccc3c(c2)OC(F)(F)O3)nc1-n1ccc(C(=O)NC(CO)c2ccccc2)c1` (stereo not drawn) [Compound 63, 1-(2-((2,2-difluoro-benzo[d][1,3]dioxol-5-yl)amino)-5-methylpyrimidin-4-yl)-N-(2-hydroxy-1-phenylethyl)-1H-pyrrole-3-carboxamide], the values for the half-inhibitory concentration (IC50) in test [1] and in test [2] were < 50 nM and ≤ 50 nM, respectively.

As to `COC[C@@H](NC(=O)c1ccn(-c2nc(Nc3ccc4c(c3)OCO4)ncc2C)c1)c1ccccc1` [Compound 64, (S)-1-(2-(benzo[d][1,3]dioxol-5-ylamino)-5-methylpyrimidin-4-yl)-N-(2-methoxy-1-phenylethyl)-1H-pyrrole-3-carboxamide], the IC50 in test [1] is < 50 nM; in test [2], ≤ 50 nM.

Regarding `O=C(NC(CO)c1ccccc1)c1ccn(-c2nc(Nc3ccc4c(c3)OCO4)ncc2F)c1` (stereo not drawn) [Compound 66, 1-(2-(benzo[d][1,3]dioxol-5-ylamino)-5-fluoropyrimidin-4-yl)-N-(2-hydroxy-1-phenylethyl)-1H-pyrrole-3-carboxamide], the results for the IC50 in test [1] and in test [2] were < 50 nM and ≤ 50 nM, respectively.

For the molecule `O=C(NC(CO)c1ccccc1)c1ccn(-c2nc(Nc3ccccc3Cl)ncc2F)c1` (stereo not drawn) [Compound 67, 1-(2-((2-chloro-phenyl)amino)-5-fluoropyrimidin-4-yl)-N-(2-hydroxy-1-phenylethyl)-1H-pyrrole-3-carboxamide], the values for the IC50 in test [1] and in test [2] were < 50 nM and ≤ 50 nM, respectively.

Regarding `Cc1cnc(Nc2ccc3occc3c2)nc1-n1ccc(C(=O)NC(CO)c2cccc(Cl)c2)c1` (stereo not drawn) [Compound 68, 1-(2-(benzofuran-5-ylamino)-5-methylpyrimidin-4-yl)-N-(1-(3-chlorophenyl)-2-hydroxyethyl)-1H-pyrrole-3-carboxamide], the IC50 in test [1] is < 50 nM; in test [2], ≤ 50 nM.

With `Cc1cnc(Nc2ccc3c(c2)OC(F)(F)O3)nc1-n1ccc(C(=O)N[C@H](CO)c2ccc(F)c(Cl)c2)c1` [Compound 69, (S)-N-(1-(3-chloro-4-fluorophenyl)-2-hydroxyethyl)-1-(2-((2,2-difluoro-benzo[d][1,3]dioxol-5-yl)amino)-5-methylpyrimidin-4-yl)-1H-pyrrole-3-carboxamide], the IC50 is < 50 nM in test [1] and ≤ 50 nM in test [2].

For `Cc1cnc(Nc2ccc3c(c2)OCO3)nc1-n1ccc(C(=O)NC(CO)c2cccc(Cl)c2F)c1` (stereo not drawn) [Compound 70, 1-(2-(benzo[d][1,3]dioxol-5-ylamino)-5-methylpyrimidin-4-yl)-N-(1-(3-chloro-2-fluorophenyl)-2-hydroxyethyl)-1H-pyrrole-3-carboxamide], the IC50 was < 50 nM in test [1] and ≤ 50 nM in test [2].

On to `O=C(NC(CO)c1ccccc1)c1ccn(-c2ccnc(Nc3ccccc3)c2)c1` (stereo not drawn) [Compound 71, N-(2-hydroxy-1-phenylethyl)-1-(2-(phenylamino)pyridin-4-yl)-1H-pyrrole-3-carboxamide], for which the IC50 in test [1] is < 50 nM; in test [2], ≤ 50 nM.

On to `O=C(N[C@H](CO)c1cccc(Cl)c1)c1cn(-c2ccnc(Nc3ccccc3)c2)cn1` [Compound 72, (S)-N-(1-(3-chlorophenyl)-2-hydroxyethyl)-1-(2-(phenylamino)pyridin-4-yl)-1H-imidazole-4-carboxamide], for which the IC50 in test [1] was < 50 nM; in test [2], ≤ 50 nM.

In the case of `Cc1cnc(Nc2ccc(N3CCNCC3)cc2)nc1-n1ccc(C(=O)NC(CO)c2ccccc2)c1` (stereo not drawn) [Compound 73, N-(2-hydroxy-1-phenylethyl)-1-(5-methyl-2-((4-(piperazin-1-yl)-phenyl)amino)pyrimidin-4-yl)-1H-pyrrole-3-carboxamide], the results for the IC50 in test [1] and in test [2] were < 50 nM and ≤ 50 nM, respectively.
